The record followed here is patent US9115093B2, “Substituted bicyclic dihydropyrimidinones and their use as inhibitors of neutrophil elastase activity” (Boehringer Ingelheim International GmbH, priority 2013, dated 2015).

The test has as its target T1, neutrophil elastase (Homo sapiens, UniProt P08246).
T1 sequence (P08246 30-247 limits assumed): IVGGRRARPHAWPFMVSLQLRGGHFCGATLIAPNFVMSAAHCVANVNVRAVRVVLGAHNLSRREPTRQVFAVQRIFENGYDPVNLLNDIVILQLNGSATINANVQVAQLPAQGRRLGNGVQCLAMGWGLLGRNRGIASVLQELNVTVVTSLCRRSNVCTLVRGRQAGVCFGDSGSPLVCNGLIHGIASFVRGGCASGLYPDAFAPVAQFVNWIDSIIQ
Briefly: Human Neutrophil Elastase Assay. The test is classed as biochemical. Also noted: purchased Calbiochem 324681. Particulars: substrate MeOSuc-Ala-Ala-Pro-Val-AMC, pH 7.5, room temperature. A digest of the protocol: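 Readout: AMC fluorescence (ex 380, em 460 nm) after 60 min room-temperature reaction with 250 nM MeOSuc-AAPV-AMC, following 15 min compound–enzyme preincubation. Buffer: Tris/NaCl pH 7.5, 0.01% BSA.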

The structures appear in SMILES notation. pIC50: −log10 of the molar value.

On to `CC(C(=O)NCCO)N1C(=O)N(c2cccc(C(F)(F)F)c2)C2=C(C(=O)CCC2)C1c1ccc(C#N)cc1` (centres unmarked) [Example 61, 2-(4-(4-Cyanophenyl)-2,5-dioxo-1-(3-(trifluoromethyl)phenyl)-1,2,5,6,7,8-hexahydroquinazolin-3(4H)-yl)-N-(2-hydroxyethyl)propanamide], for which the negative logarithm of the IC50 (pIC50) is 8.18. The compound `N#Cc1ccc(C2C3=C(CCCC3=O)N(c3cccc(C(F)(F)F)c3)C(=O)N2CC(=O)N2CCNC(=O)C2)cc1` (centres unmarked) [Example 36.21] had a negative logarithm of the IC50 (pIC50) of 8.68.

With `N#Cc1ccc(C2C3=C(CCCC3=O)N(c3cccc(C(F)(F)F)c3)C(=O)N2CC(=O)NCCN2CCCC2=O)cc1` (centres unmarked) [Example 36.58], the pIC50 is 8.00. In the case of `CC(C)(O)CNC(=O)CN1C(=O)N(c2cccc(C(F)(F)F)c2)C2=C(C(=O)CCC2)C1c1ccc(C#N)cc1` (centres unmarked) [Example 36.14] it was 8.09; in that of `CC(C)NC(=O)N1C(=O)N(c2ccnc(C(F)(F)F)c2)C2=C(C(=O)CCC2)C1c1ccc(C#N)cc1` (centres unmarked) [Example 76.3], 8.72; in that of `N#Cc1ccc(C2C3=C(CCCC3=O)N(c3cccc(C(F)(F)F)c3)C(=O)N2CCCN2CCCC2)cc1` (centres unmarked) [Example 23, 4-(1-(3-(Trifluoromethyl)phenyl)-2,5-dioxo-3-(3-(pyrrolidin-1-yl)propyl)-1,2,3,4,5,6,7,8-octahydroquinazolin-4-yl)benzonitrile], 7.97.

Consider `CNC(=O)CN1C(=O)N(c2cccc(C(F)(F)F)c2)C2=C(C(=O)CCC2)C1c1ccc(C#N)cc1` (centres unmarked) [Example 36.1], for which the negative logarithm of the IC50 (pIC50) was 8.19. In the case of `CCN1C(=O)N(c2cccc(C(F)(F)F)c2)C2=C(C(=O)CCC2)C1c1ccc(C#N)cc1S(C)(=O)=O` (centres unmarked) [Example 58, 4-(3-Ethyl-2,5-dioxo-1-(3-(trifluoromethyl)phenyl)-1,2,3,4,5,6,7,8-octahydroquinazolin-4-yl)-3-(methylsulfonyl)benzonitrile] it was 8.89; in that of `CN(CCN1CCCC1=O)C(=O)CN1C(=O)N(c2cccc(C(F)(F)F)c2)C2=C(C(=O)CCC2)C1c1ccc(C#N)cc1` (centres unmarked) [Example 36.67], 8.38; in that of `COCCCN1C(=O)N(c2cccc(C(F)(F)F)c2)C2=C(C(=O)CCC2)C1c1ccc(C#N)cc1` (centres unmarked) [Example 24, 4-(1-(3-(Trifluoromethyl)phenyl)-3-(3-methoxypropyl)-2,5-dioxo-1,2,3,4,5,6,7,8-octahydroquinazolin-4-yl)benzonitrile], 8.19. In turn, `N#Cc1ccc(C2C3=C(CCCC3=O)N(c3cccc(C(F)(F)F)c3)C(=O)N2C(=O)NCC2CCOC2)cc1` (centres unmarked) [Example 39.9] gave a pIC50 of more than 9.00. In the case of `N#Cc1ccc(C2C3=C(CCCC3=O)N(c3cccc(C(F)(F)F)c3)C(=O)N2CC(=O)NCCn2ccnc2)cc1` (centres unmarked) [Example 36.30] it was 8.23; in that of `N#Cc1ccc(C2C3=C(CCCC3=O)N(c3ccnc(C(F)(F)F)c3)C(=O)N2C(=O)NC2CC2)cc1` (centres unmarked) [Example 76, 4-(4-Cyanophenyl)-N-cyclopropyl-2,5-dioxo-1-(2-(trifluoromethyl)pyridin-4-yl)-1,2,5,6,7,8-hexahydroquinazoline-3(4H)-carboxamide], 8.77; in that of `CS(=O)(=O)c1cc(C#N)ccc1C1C2=C(CCCC2=O)N(c2cccc(C(F)(F)F)c2)C(=O)N1CC1CCOCC1` (centres unmarked) [Example 58.5], 8.72. In the case of `Cn1ccc(CN2C(=O)N(c3cccc(C(F)(F)F)c3)C3=C(C(=O)CCC3)C2c2ccc(C#N)cc2)cc1=O` (centres unmarked) [Example 27, 4-(1-(3-(Trifluoromethyl)phenyl)-3-((1-methyl-2-oxo-1,2-dihydropyridin-4-yl)methyl)-2,5-dioxo-1,2,3,4,5,6,7,8-octahydroquinazolin-4-yl)benzonitrile] it was 7.97. `N#Cc1ccc(C2NC(=O)N(c3cccc(C(F)(F)F)c3)C3=C2C(=O)CC(C(=O)O)C3)cc1` (centres unmarked) [Example 10, 4-(4-Cyanophenyl)-2,5-dioxo-1-(3-(trifluoromethyl)phenyl)-1,2,3,4,5,6,7,8-octahydroquinazoline-7-carboxylic acid]: the pIC50 was 7.31. In the case of `COc1cc(C#N)ccc1C1NC(=O)N(c2cccc(C(F)(F)F)c2)C2=C1C(=O)CCC2` (centres unmarked) [Example 53, 4-(2,5-Dioxo-1-(3-(trifluoromethyl)phenyl)-1,2,3,4,5,6,7,8-octahydroquinazolin-4-yl)-3-methoxybenzonitrile] it was 7.47. As to `N#Cc1ccc(C2C3=C(CCCC3=O)N(c3cccc(C(F)(F)F)c3)C(=O)N2C(=O)NC2CS(=O)(=O)C2)cc1` (centres unmarked) [Example 70.18], the pIC50 was more than 9.00. In the case of `COCCCNC(=O)CN1C(=O)N(c2cccc(C(F)(F)F)c2)C2=C(C(=O)CCC2)C1c1ccc(C#N)cc1` (centres unmarked) [Example 36.13] it was 7.69; in that of `N#Cc1ccc(C2NC(=O)N(c3cccc(C(F)(F)F)c3)C3=C2C(=O)CCC3)c(Cl)c1` (centres unmarked) [Example 56, 3-Chloro-4-(2,5-dioxo-1-(3-(trifluoromethyl)phenyl)-1,2,3,4,5,6,7,8-octahydroquinazolin-4-yl)benzonitrile], 7.47. Compound `CCCCN1C(=O)N(c2cccc(C(F)(F)F)c2)C2=C(C(=O)CCC2)C1c1ccc(C#N)cc1` (centres unmarked) [Example 21, 4-(3-Butyl-1-(3-(trifluoromethyl)phenyl)-2,5-dioxo-1,2,3,4,5,6,7,8-octahydroquinazolin-4-yl)benzonitrile] showed a pIC50 of 7.71. In the case of `CS(=O)(=O)c1ccc(CNC(=O)N2C(=O)N(c3cccc(C(F)(F)F)c3)C3=C(C(=O)CCC3)C2c2ccc(C#N)cc2)cc1` (centres unmarked) [Example 37, 4-(4-Cyanophenyl)-N-(4-(methylsulfonyl)benzyl)-2,5-dioxo-1-(3-(trifluoromethyl)-phenyl)-1,2,5,6,7,8-hexahydroquinazoline-3(4H)-carboxamide] it was more than 9.00; in that of `N#Cc1ccc(C2C3=C(CCCC3=O)N(c3cccc(C(F)(F)F)c3)C(=O)N2CC(=O)N2CCSCC2)cc1` (centres unmarked) [Example 36.28], 8.36; in that of `CC(=O)NCCNC(=O)CN1C(=O)N(c2cccc(C(F)(F)F)c2)C2=C(C(=O)CCC2)C1c1ccc(C#N)cc1` (centres unmarked) [Example 36.26], 7.75. In the case of `COC1CCN(C(=O)CN2C(=O)N(c3cccc(C(F)(F)F)c3)C3=C(C(=O)CCC3)C2c2ccc(C#N)cc2)C1` (centres unmarked) [Example 36.23] it was 8.68. With `CS(=O)(=O)N1C(=O)N(c2cccc(C(F)(F)F)c2)C2=C(C(=O)CCC2)C1c1ccc(C#N)cc1Cl` (centres unmarked) [Example 67, 3-Chloro-4-(3-(methylsulfonyl)-2,5-dioxo-1-(3-(trifluoromethyl)phenyl)-1,2,3,4,5,6,7,8-octahydroquinazolin-4-yl)benzonitrile], the pIC50 is 8.17.

Compound `CCNC(=O)N1C(=O)N(c2cccc(C(F)(F)F)c2)C2=C(C(=O)CCC2)C1c1ccc(C#N)cc1C` (centres unmarked) [Example 74, 4-(4-Cyano-2-methylphenyl)-N-ethyl-2,5-dioxo-1-(3-(trifluoromethyl)phenyl)-1,2,5,6,7,8-hexahydroquinazoline-3(4H)-carboxamide] showed a pIC50 of more than 9.00. Compound `N#Cc1ccc(C2NC(=O)N(c3cccc(C(F)(F)F)c3)C3=C2C(=O)CC(c2ccccc2)C3)cc1` (centres unmarked) [Example 6, 4-(2,5-dioxo-7-phenyl-1-(3-(trifluoromethyl)phenyl)-1,2,3,4,5,6,7,8-octahydroquinazolin-4-yl)benzonitrile] showed a negative-log IC50 (pIC50) of 7.32. Consider `N#Cc1ccc(C2C3=C(CCCC3=O)N(c3cccc(C(F)(F)F)c3)C(=O)N2CC(N)=O)cc1` (centres unmarked) [Example 33, 2-(4-(4-Cyanophenyl)-2,5-dioxo-1-(3-(trifluoromethyl)phenyl)-1,2,5,6,7,8-hexahydroquinazolin-3(4H)-yl)acetamide], for which the pIC50 is 8.02. In the case of `CC1(O)CCN(C(=O)CN2C(=O)N(c3cccc(C(F)(F)F)c3)C3=C(C(=O)CCC3)C2c2ccc(C#N)cc2)C1` (centres unmarked) [Example 36.25] it was 8.77; in that of `CCCS(=O)(=O)N1C(=O)N(c2cccc(C(F)(F)F)c2)C2=C(C(=O)CCC2)C1c1ccc(C#N)cc1` (centres unmarked) [Example 44.2], 8.52; in that of `CS(=O)(=O)c1cc(C#N)ccc1[C@@H]1C2=C(CCCC2=O)N(c2cccc(C(F)(F)F)c2)C(=O)N1C(=O)NC1CC1` [Example 75.2], more than 9.00. In the case of `N#Cc1ccc(C2C3=C(CCCC3=O)N(c3cccc(C(F)(F)F)c3)C(=O)N2C(=O)NC2CCS(=O)(=O)C2)cc1` (centres unmarked) [Example 70.19] it was more than 9.00. In the case of `N#Cc1ccc(C2NC(=O)N(c3ccnc(C(F)(F)F)c3)C3=C2C(=O)CCC3)cc1` (centres unmarked) [Example 14, 4-(2,5-Dioxo-1-(2-(trifluoromethyl)pyridin-4-yl)-1,2,3,4,5,6,7,8-octahydroquinazolin-4-yl)benzonitrile] it was 7.15. Compound `N#Cc1ccc(C2C3=C(CCCC3=O)N(c3cccc(C(F)(F)F)c3)C(=O)N2C(=O)NC2CC[S+]([O-])CC2)cc1` (centres unmarked) [Example 71, 4-(4-Cyanophenyl)-2,5-dioxo-N-(1-oxo-hexahydro-1λ^4-thiopyran-4-yl)-1-(3-(trifluoromethyl)phenyl)-1,2,5,6,7,8-hexahydroquinazoline-3(4H)-carboxamide] gave a pIC50 of more than 9.00. In the case of `N#Cc1ccc(C2C3=C(CCCC3=O)N(c3cccc(C(F)(F)F)c3)C(=O)N2C(=O)NC2CCCS(=O)(=O)C2)cc1` (centres unmarked) [Example 70.20] it was more than 9.00; in that of `N#Cc1ccc(C2NC(=O)N(c3cccc(C(F)(F)F)c3)C3=C2C(=O)CCC3)nc1` (centres unmarked) [Example 15, 6-(2,5-Dioxo-1-(3-(trifluoromethyl)phenyl)-1,2,3,4,5,6,7,8-octahydroquinazolin-4-yl)-nicotinonitrile], 7.28; in that of `CCS(=O)(=O)N1C(=O)N(c2cccc(C(F)(F)F)c2)C2=C(C(=O)CCC2)C1c1ccc(C#N)cc1` (centres unmarked) [Example 44.1], 8.29.
